# Measured values taken from US6420362B1, “Azines containing the 5,6-di-hydro-(1,4,2) dioxazine-3-yl group and the use thereof as fungicides” (priority 1997, dated 2002).
# Test: log P determination by HPLC (EEC Directive 79/831 Annex V. A8)
# Format: physicochemical
# Procedure: The log P values were determined in accordance with EEC Directive 79/831 Annex V. A8 by HPLC (gradient method, acetonitrile/0.1% strength aqueous phosphoric acid).
row,SMILES,chromatographic logP
1,"CON=C(C1=NOCCO1)c1ccccc1C=NN=C(C)c1cccc(C(F)(F)F)c1 [Example 1, (5,6-dihydro-[1,4,2]dioxazin-3-yl)-(2-{[1-(3-trifluoromethylphenyl)-ethylidene]-hydrazonomethyl}-phenyl)-methanone O-methyl oxime]",3.8
2,"CON=C(C1=NOCCO1)c1ccccc1C=NN=C(C)c1ccc(C(F)(F)F)cc1 [Example 2, (5,6-dihydro-[1,4,2]dioxazin-3-yl)-(2-{[1-(4-trifluoromethylphenyl)-ethylidene]-hydrazonomethyl}-phenyl)-methanone O-methyl oxime]",3.8
3,CON=C(C(C)=NN=Cc1ccccc1/C(=N/OC)C1=NOCCO1)C(C)C [Example 12],3.92

# Now from value to compound:
row,chromatographic logP,SMILES
1,3.17,"CON=C(C)C(C)=NN=Cc1ccccc1C(=NOC)C1=NOCCO1 [Example 4, 3-({2-[(5,6-dihydro-[1,4,2]dioxazin-3-yl)-methoxyimino-methyl]-benzylidene}-hydrazono)-butan-2-one O-methyl oxime]"
2,3.58,CCC(=NOC)C(C)=NN=Cc1ccccc1/C(=N/OC)C1=NOCCO1 [Example 13]
3,3.61,CCON=C(C)C(C)=NN=Cc1ccccc1C(=NOC)C1=NOCCO1 [Example 17]
